Experimental findings from article PMC9046208, “Foldamers reveal and validate therapeutic targets associated with toxic α-synuclein self-assembly” (Nature Communications, 2022) are described below.

One test relates to NL5901. Kind of test: αS-YFP inclusion count in C elegans NL5901. Format: in vivo. The conditions noted are these: NL5901, 15 μM SK-129, day 8 of adulthood; untreated ~33. As to the method: The assay was carried out based on a previous protocol[57] with slight modifications. On day one, N2 and NL5901 strains were synchronized through the bleaching process involving egglay and the incubation of the eggs at an ambient temperature (~23 °C) on a solution of 3 mL NGM media in 60 mm culture plates (CytoOne, USA Scientific, Ocala, FL). The plates were seeded with 300 µL OP50 at an O.D. of 0.5 for 30 h. Simultaneously, a solution of 15 µM SK-129 (Stock solution concentration = 10 mM in DMSO) was made in M9 buffer and added to two sterilized 35 mm NGM solid media plates (Fisher Scientific, Pittsburgh, PA). The plates were already containing 2 mL of NGM solid media and 75 µM Fluorodeoxyuridine (FUDR) to prevent offspring in the worms. […] On day five, motility assay was conducted for worms under different conditions in duplicate using a WMicroTracker Arena plate reader (Phylumtech, Argentina) at ~23 °C for 1 h per day over a period of 12 days. […]
The worms from the NL5901 strain were treated in the absence and presence of SK-129 (15 µM SK-129, stock solution concentration = 10 mM in DMSO) as described in the paralysis experiment. […] For each experiment, at least 15 worms were used, and the inclusions were counted manually, and each condition consisted of at least four independent experiments.

The target in another test is Aβ42 (Homo sapiens, UniProt P05067). The test can be described thus: Fluorescence polarization titration, SK-129F with Aβ42. Format: binding. The conditions noted are these: FP, higher Kd for Aβ42. As to the method:
All Fluorescence Polarization (FP) experiments were conducted on a Varian Cary Eclipse fluorometer (Agilent, Santa Clara, CA) equipped with a polarizer. The stock solutions of αS, 1 mM or 100 μM in 1x PBS buffer, were serially added into a solution of 10 μM SK-129F (300 μL in 1x PBS buffer) while stirring in a quartz cuvette (Fireflysci, Staten Island, NY). All FP measurements were conducted in triplicates in 20 mM Tris, 100 mM NaCl, pH 7.2 at 20 °C. The excitation and emissions wavelengths were set at 490 nm and 520 nm, respectively. Each titration was equilibrated for five min before measurements were taken for the next addition of αS solution. The addition of αS solution was continuous until no more change in the FP signal was observed. Similar conditions were used for the titration of various αS mutants and Aβ42 peptide against SK-129F. A stock solution of Aβ42 (1 mM or 100 μM in 1x PBS buffer on ice) was sequentially added to a solution of 10 μM SK-129F (300 μL in 1x PBS buffer) until no more change in the FP signal was observed. The polarization of each point was calculated using Eq. 1:1 FP=I∥−I⊥/I∥+I⊥ Where I∥ is fluorescence intensity parallel to the excitation plane and I⊥ is fluorescence intensity perpendicular to the excitation plane. […]

Sequence of Aβ42 (P05067 672-713 limits assumed, species assumed): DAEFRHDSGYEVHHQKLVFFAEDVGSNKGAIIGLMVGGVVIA

As for `COC(=O)c1cc(OCC(=O)O)c2cccc(NC(=O)c3cc(OC(C)C)c4cccc(NC(=O)c5cc(OCC(=O)O)c6cccc(NC(=O)c7cc(OC(C)C)c8cccc([N+](=O)[O-])c8n7)c6n5)c4n3)c2n1` [SK-129], the “number of αS-YFP inclusions” value with NL5901 is 8–9 inclusions/C elegans. Moreover, the “Kd for Aβ42 relative to αS” value at Aβ42 was “more than 15 fold”.
